# Experimental data taken from patent US20220378763A1, “COMPOUND FOR TREATMENT OF ACUTE INFLAMMATION IN THE MYOCARDIUM” (CALPROTECT AB, priority 2019, published 2022).
# How the values were obtained:
# Format in all cases: in vivo, mouse
# [1] = test system: C57BL/6 mice with sepsis induced by bacterial lipopolysaccharide; test: LPS-induced sepsis: mortality over 7 days; settings: 30 mg/kg i.p. at 0 and 6 h after LPS; 7-day period
# Experimental: General animal care, induction of sepsis and treatments were performed as described under Example 7. We initially included a total of 10 mice per treatment group, pooled from two independent experiments. To assess mortality after induction of sepsis, the mice were monitored at least three times a day for 7 days. […] The final group size was n=9 mice in the ABR-238901-treated group, and n=10 in the PBS-treated group. The experimental layout is outlined in FIG. 14A. Mice showing clinical signs of terminal illness that fulfilled the pre-specified termination points specified in the ethical permit awarded by the Lund University Ethics Committee were euthanized. Weight loss more than 20% is not considered a clinical sign of terminal illness, but was defined by the Ethical Committee as an experiment termination criterion.
# [2] = test system: BALB/c mice with induced myocarditis; test: Myocarditis induced by cardiac α-myosin peptide: flow cytometry of heart and heart-draining lymph nodes; settings: day 21
# Experimental: Animal care, induction of myocarditis and treatments were performed as described above (Example 11) (n=10 mice per group). The mice were sacrificed on day 21, and hearts and mediastinal heart-draining lymph nodes were isolated.
# Single cell suspensions were obtained from the organs by mechanic sectioning and enzymatic digestion, and the cells were stained with fluorescently-conjugated antibodies for analysis by flow cytometry. After euthanization, the mice were perfused intra-cardially with 20 ml ice-cold PBS, hearts and mediastinal lymph nodes were harvested and placed in PBS on ice. Hearts were cut in small pieces for 2 min while placed in digestion mixture containing 450 U/ml Collagenase I-S (Sigma-Aldrich, C0130), 125 U/ml Collagenase XI (Sigma-Aldrich, C7657), 60 U/ml Hyaluronidase Type I-S(Sigma-Aldrich H3506), 60 U/ml DNAse I (Sigma-Aldrich, DN25), and 20 mM HEPES (Fischer Scientific, SH3023701) in PBS, and thereafter incubated for 1 h at 37° C. with gentle agitation. Enzymatically-digested tissues were passed through a 70 μm cell strainer and washed twice with PBS. Mediastinal lymph nodes were passed through a 70 μm cell strainer and washed twice with PBS before staining. Single cell suspensions were stained in PBS with Zombie Aqua live/dead (BioLegend, 423102) for 10 min at RT followed by extracellular staining in FC-buffer (PBS, 0.5% BSA and 20 mM EDTA) with fluorescently-conjugated antibodies for 20 min on ice. The following monoclonal antibodies were used: anti-CD3ε (clone 145-2C11), anti-CD4 (clone OKT4), anti-CD8 (clone RPA-T8), anti-CD11b (clone EP1345Y), anti-CD11c (clone N418), anti-CD19 (clone 6D5), anti-CD44 (clone IM7), anti-CD45.2 (clone 104), anti-CD49b (clone DX5) anti-CD62L (clone MEL-14), […], anti-CD69 (clone X54-5/7.1), anti-CD115 (clone AFS98), anti-Ly-6C (clone HK1.4), anti-Ly-6G (clone 1A8), anti-MerTK (clone DS5MMER), anti-MHCII (clone M5/114.15.2), anti-Siglec-F (clone E50-2440). Appropriate single stains were performed using AbC Total Antibody Compensation Bead kit (Thermo Fischer Scientific) or with cells for live/dead. Flow cytometry analysis was done using a Gallios Flow Cytometer (Beckman Coulter) and data was analyzed using the FlowJo software (Tree Star).
# [3] = test system: C57BL/6 mice with permanent coronary artery ligation; test: MI by permanent coronary artery ligation, long-term (21 days) treatment: echocardiography and scar size; settings: treatment for 21 days
# Experimental: Ultrasound measurements were performed at day −1 (baseline), 7, and 21 to assess cardiac function using a Vevo 770 echocardiographic imaging system with a 707B probe (VisualSonics, Toronto, Canada). In selected experiments, additional assessment was performed on days 3 and 14. The mice were anesthetized using 1-3% isoflurane and hair was carefully removed using depilatory cream. To maintain body temperature, the mice were placed in supine position on a heated surface (37° C.). Two-dimensional M-mode images were recorded in the parasternal short-axis view at the mid-papillary level. Five complete cardiac cycles were traced to calculate fractional shortening, ejection fraction, left ventricular systolic volume, and left ventricular diastolic volume by using the VisualSonics software.
# At 21 days after MI, the hearts were perfused with ice cold PBS and excised under ketamine/xylazine anesthesia. Subsequently the hearts were fixed in 4% (w/v) paraformaldehyde and embedded in paraffin. The hearts were sectioned transversely from the apex to the level of the suture, and 6 μm thick sections were collected at 390 μm intervals. The sections were mounted on glass slides and stained with Van Gieson or Masson trichrome stain for quantitative analysis of scar size. Alarmin S100A8/A9 was detected using mouse anti-S100A8/A9 IgG1 antibody (Abcam, ab 130234, 1:100 dilution, O/N 4° C.). Goat anti-mouse IgG1 HRP-conjugated secondary antibody (Abcam, ab 97240, 1 h RT) was used and the staining was developed with ImmPACT™ DAB (Vector, SK-4105) chromogen as substrate. The slides were subsequently scanned using an Aperio digital pathology slide scanner (Leica Biosystems), and images were captured with the ImageScope software (Leica Biosystems). Left ventricle area and the infarcted area were measured on each section by using the BioPix iQ 2.5.0 software (Biopix AB). The size of the post-MI myocardial scar was expressed as percentage of the left ventricle volume below the coronary ligature.
# MI induction and other procedures were carried out as outlined in Example 2. For long-term experiments of up to 21 days, a daily dose of 30 mg/Kg ABR-238901 was diluted in PBS and administered by daily i.p. injections for the first 3 days post-MI until the mice recovered and started to drink normally, and thereafter p.o. ad-libitum in meglumine buffer (FIG. 4A). Adequate treatment dosage was ensured by closely monitoring daily fluid intake.
structure (smiles),measurement,setting,value
"COc1ncc(S(=O)(=O)Nc2cncc(Cl)c2O)cc1Br [ABR-238901, 5-bromo-N-(5-chloro-4-hydroxypyridin-3-yl)-6-methoxypyridine-3-sulfonamide]",Animal survival,[1],100%
same,"Cardiac eosinophil infiltration, percent of live CD45+ leukocytes",[2],7.5%
same,"Effector memory (CD44+CD62L−) CD4+ T cells in heart-draining lymph nodes, percent of live CD45+CD3+ T cells",[2],15.9%
same,"Effector memory (CD44+CD62L−) CD8+ T cells in heart-draining lymph nodes, percent of live CD45+CD3+ T cells",[2],23.3%
same,"Infiltration of cDCs in the heart, % of live CD45+ leukocytes",[2],5.7%
same,"Total CD3+ T cells in heart-draining lymph nodes, % of live CD45+ leukocytes",[2],59.5%
same,Cardiac function (left ventricular ejection fraction),"[3]; 30 mg/Kg i.p. 3 days then p.o., echocardiography",progressive deterioration
same,Size of the myocardial scar,[3]; 21 days,increased
same,EDV vs controls,[3]; day 21,increased
same,ESV vs controls,[3]; day 21,increased
